# Several values for one entry are separate records, joined by “and”; a condition that tells them apart may be missing. Equal entries are not always repeated.
# Tests used:
# [1] = tested on: Pasteurella multocida PM 14426 (0006-439, BRD field isolate, macrolide-resistant); assay: MIC, broth-microdilution (CLSI VET01-A4); type: cell-based; conditions: strain PM 14426, macrolide-resistant
# Procedure: (§1) The Minimum inhibitory concentrations (MIC) of compounds according to the invention were determined by the broth-microdilution method according to CLSI document VET01-A4.
# (§2) Microdilution trays containing a doubling dilution series of the test compound were used for the tests.
# (§3) The MIC results were interpreted according to the CLSI documents VET01-S3. The lowest concentration of compound at which no visible growth (i.e. no turbidity) detected by the unaided eye was recorded as the MIC.
# [2] = tested on: Staphylococcus aureus SA 6114 (ATCC 29213, reference strain); assay: MIC, broth-microdilution (CLSI VET01-A4); type: cell-based; conditions: strain SA 6114
# Procedure: as §1, §2, §3
# [3] = tested on: Acinetobacter baumanii AB 15919 (IV369-2012, dermatitis field isolate); assay: MIC, broth-microdilution (CLSI VET01-A4); type: cell-based; conditions: strain AB 15919
# Procedure: as §1, §2, §3
# [4] = tested on: Acinetobacter baumanii AB 16496 (ATCC 19606, reference strain); assay: MIC, broth-microdilution (CLSI VET01-A4); type: cell-based; conditions: strain AB 16496
# Procedure: as §1, §2, §3
# [5] = tested on: Staphylococcus aureus SA 5816 (2139, mastitis field isolate); assay: MIC, broth-microdilution (CLSI VET01-A4); type: cell-based; conditions: strain SA 5816
# Procedure: as §1, §2, §3
# [6] = tested on: Mannheimia haemolytica MH 12180 (KLI-02944, BRD field isolate); assay: MIC, broth-microdilution (CLSI VET01-A4); type: cell-based; conditions: strain MH 12180
# Procedure: as §1, §2, §3
# M. haemolytica M7/2 = assay: Mannheimia haemolytica cattle lung infection model, efficacy (Example 9); type: in vivo, cattle calves; conditions: for Food consumption, cumulated for all animals in the group: 3 calves, SC 10 mg/kg BW
# Procedure: (§4) Unless otherwise described the study was conducted as described in Example 8.
# Calves were infected via intratracheal instillation of appr. 300 mL of M. haemolytica PBS suspension containing approximately 4×10^9 CFU M. haemolytica in late log phase on Day 0.
# The following clinical findings were recorded: The general behavior scores of the animals before (DO am) and after infection with M. haemolytica in the different treated and control groups are indicated in FIG. 7-1: 0 =normal; 1=slightly depressive, 2=moderately depressive, 3=highly depressive, […] recumbency.
# The following pathomorphological findings after section on Day 2 were recorded: After measuring the body weight and the lung weight the Lung body mass ratio was calculated as shown in FIG. 7-2. A healthy animal has a lung body mass ration around 1.7 or lower. The area percentage of lung consolidations compared to the total lung tissue and the lung score determined that is a combined score of such percentage of lung consoldiations and the grade. For the “grade” the degree of lung consolidation score was graded from 0 to 3 for each of eight lung lobes: 0 no visible changes, 1 low graded colour changes or induration, 2 medium graded induration, 3 high graded induration, hepatisation, necrosis.
# The geometrical means (CFU/g tissue) of bacteriological re-isolations of Mannheimia haemolytica from lung tissue are illustrated in FIG. 7-4.
# [7] = tested on: Pasteurella multocida PM 12080 (IV102277-0093, BRD field isolate); assay: MIC, broth-microdilution (CLSI VET01-A4); type: cell-based; conditions: strain PM 12080
# Outline: (§5)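 MIC values follow CLSI VET01-S3 interpretation, scored as the lowest concentration free of visible turbidity within a doubling dilution series in microdilution trays.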
# [8] = tested on: Pasteurella multocida PM 6391 (ATCC 43137, reference strain); assay: MIC, broth-microdilution (CLSI VET01-A4); type: cell-based; conditions: strain PM 6391
# Outline: as §5
# [9] = tested on: Mannheimia haemolytica MH 12587 (1071, BRD field isolate, macrolide-resistance: erm+, E+); assay: MIC, broth-microdilution (CLSI VET01-A4); type: cell-based; conditions: strain MH 12587, macrolide-resistant
# Outline: as §5
# [10] = tested on: Pasteurella multocida PM 10775 (080130003051, BRD field isolate); assay: MIC, broth-microdilution (CLSI VET01-A4); type: cell-based; conditions: strain PM 10775
# Outline: as §5
# [11] = tested on: Mannheimia haemolytica MH 6357 (M7/2, reference strain, cattle infection strain); assay: MIC, broth-microdilution (CLSI VET01-A4); type: cell-based; conditions: strain MH 6357
# Outline: as §5
# [12] = tested on: Mannheimia haemolytica MH 6374 (ATCC 33396, reference strain); assay: MIC, broth-microdilution (CLSI VET01-A4); type: cell-based; conditions: strain MH 6374
# Outline: as §5
# [13] = tested on: Pasteurella multocida PM 6267 (P 2225 (L386), reference strain, mouse infection strain); assay: MIC, broth-microdilution (CLSI VET01-A4); type: cell-based; conditions: strain PM 6267
# Outline: as §5
# [14] = tested on: Mannheimia haemolytica MH 10720 (154, BRD field isolate); assay: MIC, broth-microdilution (CLSI VET01-A4); type: cell-based; conditions: strain MH 10720
# Outline: as §5
# [15] = tested on: 20 isolates of Histophilus (H.) somni; assay: MIC50/MIC90, broth-microdilution, European respiratory tract isolates; type: cell-based
# Procedure: (§6) The in vitro activity of compounds against 20 isolates of Actinobacillus (A.) pleuropneumoniae, 20 of Bordetella (B.) bronchiseptica, 20 of Histophilus (H.) somni, 40 of Mannheimia (M.) haemolytica and 40 of Pasteurella (P.) multocida collected in different European countries were determined. All bacteria were isolated from the respiratory tract of swine and cattle suffering from respiratory disease. All isolates were epidemiologically unrelated as specified by the different suppliers.
# (§7) The minimum inhibitory concentrations (MIC) of compounds according to the invention were determined by the broth-microdilution method according to CLSI document VET01-A4.
# (§8) Microdilution trays containing a doubling dilution series of the test compounds were used for the tests.
# as §3
# [16] = tested on: 40 isolates of Mannheimia (M.) haemolytica; assay: as above; type: cell-based
# Procedure: as §6, §7, §8, §3
# [17] = tested on: 40 isolates of Pasteurella (P.) multocida; assay: as above; type: cell-based
# Procedure: as §6, §7, §8, §3
# [18] = tested on: 20 isolates of Bordetella (B.) bronchiseptica; assay: as above; type: cell-based
# Procedure: as §6, §7, §8, §3
# [19] = tested on: 20 isolates of Actinobacillus (A.) pleuropneumoniae; assay: as above; type: cell-based
# Procedure: as §6, §7, §8, §3
# [20] = Plasma and tissue concentrations and pharmacokinetics in infected calves (Example 9); type: in vivo, cattle calves
# Procedure: as §4
# [21] = calves infected with M. haemolytica, SC, single, 10 mg/kg BW, x = number of animals, n = total in group
# [22] = SC single 10 mg/kg (C.105, C.189 in 10% Poloxamer 188; C.326 in 30% Captisol), individual animals and mean
# [23] = SC single 10 mg/kg (C.105, C.189 in 10% Poloxamer 188; C.326 in 30% Captisol), individual animals and mean, 10 mg/kg
# [24] = plasma, SC 10 mg/kg, mean, Phoenix WinNonlin
smiles,measurement,setting,value
COCCNCc1ccc(C#Cc2ccc(C(=O)N[C@H](C(=O)NO)[C@@H](C)O)cc2)s1 [C. 189],MIC,[1],0.032 µg/mL
same,MIC,[2],>16 µg/mL
same,MIC,[3],>16 µg/mL
same,MIC,[4],>16 µg/mL
same,MIC,[5],>16 µg/mL
same,MIC,[6],0.25 µg/mL
same,"Food consumption, cumulated for all animals in the group","M. haemolytica M7/2; D 0 am, after infection and treatment",4800 g
same,"Food consumption, cumulated for all animals in the group",M. haemolytica M7/2; D 0 pm,4800 g
same,"Food consumption, cumulated for all animals in the group",M. haemolytica M7/2; D +1 am,4800 g
same,"Food consumption, cumulated for all animals in the group",M. haemolytica M7/2; D +1 pm,4800 g
same,"Food consumption, cumulated for all animals in the group",M. haemolytica M7/2; D −1 (before infection),4800 g
same,Bacteriological Cure (x of n),M. haemolytica M7/2; [21],1/3
same,Survival (x of n),M. haemolytica M7/2; [21],3/3
same,efficacy against an artificial lung infection with M. haemolytica M7/2 in the calf,"M. haemolytica M7/2; tested dosage of 10 mg/kg, conclusion in words",effective
same,MIC,[7],0.063 µg/mL
same,MIC,[8],0.25 µg/mL
same,MIC,[9],1 µg/mL
same,MIC,[10],≤0.016 µg/mL
same,MIC,[11],0.5 µg/mL
same,MIC,[12],0.25 µg/mL
same,MIC,[13],0.5 µg/mL
same,MIC,[14],0.125 µg/mL
same,MIC50,[15],0.032 µg/mL
same,MIC90,[15],0.063 µg/mL
same,MIC50,[16],0.25 µg/mL
same,MIC90,[16],0.5 µg/mL
same,MIC50,[17],0.032 µg/mL
same,MIC90,[17],0.063 µg/mL
same,MIC50,[18],>16 µg/mL
same,MIC90,[18],>16 µg/mL
same,MIC50,[19],0.25 µg/mL
same,MIC90,[19],0.25 µg/mL
same,"Concentration, Plasma 48 h",[20]; [22],BLQ
same,"Concentration, Tissue (48 h) ELF",[20]; [22],BLQ
same,"Concentration, Tissue (48 h) Liver",[20]; [22],22.5 ng/mL
same,"Concentration, Tissue (48 h) Lung",[20]; [22],BLQ
same,"Concentration, Tissue (48 h) Muscle",[20]; [22],BLQ
same,"Concentration, Plasma 0.5 h",[20]; [23],916 ng/mL and 892 ng/mL and 1350 ng/mL
same,"Concentration, Plasma 2 h",[20]; [23],465 ng/mL and 663 ng/mL and 788 ng/mL
same,"Concentration, Plasma 4 h",[20]; [23],433 ng/mL and 300 ng/mL and 430 ng/mL
same,"Concentration, Plasma 6 h",[20]; [23],339 ng/mL and 293 ng/mL and 289 ng/mL
same,"Concentration, Plasma 24 h",[20]; [23],31.3 ng/mL and 20.3 ng/mL and 21.8 ng/mL
same,"Concentration, Tissue (48 h) Kidney",[20]; [23],BLQ (2×) and 25.1 ng/mL
same,"Concentration, Tissue (48 h) Liver",[20]; [23],BLQ
same,AUClast,[20]; [24],6236 ng·h/mL
same,CI_F_obs,[20]; [24],26.08 mL/min/kg
same,Cmax,[20]; [24],1053 ng/mL
same,HL_Lambda_z (Half life time),[20]; [24],4.98 h
same,MRTlast (Mean retention time till last measured value),[20]; [24],4.75 h
same,Tmax,[20]; [24],0.5 h
same,Vz_F_obs,[20]; [24],11.2 L/kg
same,"Concentration, Plasma 0 h","[20]; predose, SC single 10 mg/kg (C.105, C.189 in 10% Poloxamer 188; C.326 in 30% Captisol), individual animals and mean",BLQ

# — US20230000813A1, “COMPOUND FOR THE TREATMENT OF BOVINE OR SWINE RESPIRATORY DISEASE” (Intervet Inc., priority 2016, published 2023)
